Patent US20100063155A1, “N-(3-PHENYLPROPYL)BENZAMIDE DERIVATIVES” (priority 2007, published 2010)

System: Alternaria brassicae
Assay: In vivo test on Alternaria brassicae (leaf spot of crucifers)
Details: 500 ppm, preventive spray on radish plants (Pernot variety), contaminated after 24 hours, grading 6 to 7 days after contamination vs control plants
Protocol: The active ingredients tested are prepared by potter homogenisation in a mixture of acetone/tween/water. This suspension is then diluted with water to obtain the desired active material concentration.
Radish plants (Pernot variety), sown on a 50/50 peat soil-pozzolana substrate in starter cups and grown at 18-20° C., are treated at the cotyledon stage by spraying with the active ingredient prepared as described above.
Plants, used as controls, are treated with the mixture of acetone/tween/water not containing the active material.
After 24 hours, the plants are contaminated by spraying them with an aqueous suspension of Alternaria brassicae spores (40,000 spores per cm^3). The spores are collected from a 12 to 13 days-old culture.
The contaminated radish plants are incubated for 6-7 days at about 18° C., under a humid atmosphere.
Grading is carried out 6 to 7 days after the contamination, in comparison with the control plants.

Compound: O=C(NCCCc1ccc(Cl)cc1Cl)c1ccccc1C(F)(F)F [Compound 1, N-[3-(2,4-dichlorophenyl)propyl]-2-(trifluoromethyl)benzamide]
- protection: at least 70%
